The values below are quoted from earlier work in patent publication US9585842B2, “Sustained release guanfacine HCL formulation” (SALMON PHARMA GMBH, priority 2013, dated 2017).

The conditions of the series: low pH versus higher pH values.

Where a name gives a salt, the structure may show the parent alone.

On to `N=C(N)NC(=O)Cc1c(Cl)cccc1Cl` [Guanfacine hydrochloride], for which the pH dependent solubility result was “more soluble at low pH values than higher pH values”.
